In ChEMBL document CHEMBL1147699, “Studies on the novel alpha-glucosidase inhibitory activity and structure-activity relationships for andrographolide analogues” (Bioorg Med Chem Lett, 2006):
The source made the active and inactive calls. The rule behind the calls is not given here.

Assays:
[1] = molecular target: Maltase-glucoamylase (Homo sapiens) (UniProt O43451); experiment: Inhibition of alpha glucosidase at 100 uM
[2] = molecular target: T1, Cytosolic beta-glucosidase (Homo sapiens) (UniProt Q9H227); experiment: Inhibition of beta glucosidase at 100 uM
T1 sequence (whole entry): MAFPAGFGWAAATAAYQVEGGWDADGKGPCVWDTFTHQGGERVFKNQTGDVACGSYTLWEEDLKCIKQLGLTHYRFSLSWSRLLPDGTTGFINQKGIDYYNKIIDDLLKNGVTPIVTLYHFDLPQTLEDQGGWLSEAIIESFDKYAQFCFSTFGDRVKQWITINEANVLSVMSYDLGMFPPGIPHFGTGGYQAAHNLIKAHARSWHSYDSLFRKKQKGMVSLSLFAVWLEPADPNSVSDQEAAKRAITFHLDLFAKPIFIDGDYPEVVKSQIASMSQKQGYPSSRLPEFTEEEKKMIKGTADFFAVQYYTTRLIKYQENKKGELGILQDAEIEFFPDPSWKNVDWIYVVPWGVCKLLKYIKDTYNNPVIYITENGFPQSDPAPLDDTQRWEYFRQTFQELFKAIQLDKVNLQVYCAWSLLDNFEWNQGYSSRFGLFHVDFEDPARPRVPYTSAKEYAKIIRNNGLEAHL

Maltase-glucoamylase (Homo sapiens), sequence (O43451 whole entry, looked up): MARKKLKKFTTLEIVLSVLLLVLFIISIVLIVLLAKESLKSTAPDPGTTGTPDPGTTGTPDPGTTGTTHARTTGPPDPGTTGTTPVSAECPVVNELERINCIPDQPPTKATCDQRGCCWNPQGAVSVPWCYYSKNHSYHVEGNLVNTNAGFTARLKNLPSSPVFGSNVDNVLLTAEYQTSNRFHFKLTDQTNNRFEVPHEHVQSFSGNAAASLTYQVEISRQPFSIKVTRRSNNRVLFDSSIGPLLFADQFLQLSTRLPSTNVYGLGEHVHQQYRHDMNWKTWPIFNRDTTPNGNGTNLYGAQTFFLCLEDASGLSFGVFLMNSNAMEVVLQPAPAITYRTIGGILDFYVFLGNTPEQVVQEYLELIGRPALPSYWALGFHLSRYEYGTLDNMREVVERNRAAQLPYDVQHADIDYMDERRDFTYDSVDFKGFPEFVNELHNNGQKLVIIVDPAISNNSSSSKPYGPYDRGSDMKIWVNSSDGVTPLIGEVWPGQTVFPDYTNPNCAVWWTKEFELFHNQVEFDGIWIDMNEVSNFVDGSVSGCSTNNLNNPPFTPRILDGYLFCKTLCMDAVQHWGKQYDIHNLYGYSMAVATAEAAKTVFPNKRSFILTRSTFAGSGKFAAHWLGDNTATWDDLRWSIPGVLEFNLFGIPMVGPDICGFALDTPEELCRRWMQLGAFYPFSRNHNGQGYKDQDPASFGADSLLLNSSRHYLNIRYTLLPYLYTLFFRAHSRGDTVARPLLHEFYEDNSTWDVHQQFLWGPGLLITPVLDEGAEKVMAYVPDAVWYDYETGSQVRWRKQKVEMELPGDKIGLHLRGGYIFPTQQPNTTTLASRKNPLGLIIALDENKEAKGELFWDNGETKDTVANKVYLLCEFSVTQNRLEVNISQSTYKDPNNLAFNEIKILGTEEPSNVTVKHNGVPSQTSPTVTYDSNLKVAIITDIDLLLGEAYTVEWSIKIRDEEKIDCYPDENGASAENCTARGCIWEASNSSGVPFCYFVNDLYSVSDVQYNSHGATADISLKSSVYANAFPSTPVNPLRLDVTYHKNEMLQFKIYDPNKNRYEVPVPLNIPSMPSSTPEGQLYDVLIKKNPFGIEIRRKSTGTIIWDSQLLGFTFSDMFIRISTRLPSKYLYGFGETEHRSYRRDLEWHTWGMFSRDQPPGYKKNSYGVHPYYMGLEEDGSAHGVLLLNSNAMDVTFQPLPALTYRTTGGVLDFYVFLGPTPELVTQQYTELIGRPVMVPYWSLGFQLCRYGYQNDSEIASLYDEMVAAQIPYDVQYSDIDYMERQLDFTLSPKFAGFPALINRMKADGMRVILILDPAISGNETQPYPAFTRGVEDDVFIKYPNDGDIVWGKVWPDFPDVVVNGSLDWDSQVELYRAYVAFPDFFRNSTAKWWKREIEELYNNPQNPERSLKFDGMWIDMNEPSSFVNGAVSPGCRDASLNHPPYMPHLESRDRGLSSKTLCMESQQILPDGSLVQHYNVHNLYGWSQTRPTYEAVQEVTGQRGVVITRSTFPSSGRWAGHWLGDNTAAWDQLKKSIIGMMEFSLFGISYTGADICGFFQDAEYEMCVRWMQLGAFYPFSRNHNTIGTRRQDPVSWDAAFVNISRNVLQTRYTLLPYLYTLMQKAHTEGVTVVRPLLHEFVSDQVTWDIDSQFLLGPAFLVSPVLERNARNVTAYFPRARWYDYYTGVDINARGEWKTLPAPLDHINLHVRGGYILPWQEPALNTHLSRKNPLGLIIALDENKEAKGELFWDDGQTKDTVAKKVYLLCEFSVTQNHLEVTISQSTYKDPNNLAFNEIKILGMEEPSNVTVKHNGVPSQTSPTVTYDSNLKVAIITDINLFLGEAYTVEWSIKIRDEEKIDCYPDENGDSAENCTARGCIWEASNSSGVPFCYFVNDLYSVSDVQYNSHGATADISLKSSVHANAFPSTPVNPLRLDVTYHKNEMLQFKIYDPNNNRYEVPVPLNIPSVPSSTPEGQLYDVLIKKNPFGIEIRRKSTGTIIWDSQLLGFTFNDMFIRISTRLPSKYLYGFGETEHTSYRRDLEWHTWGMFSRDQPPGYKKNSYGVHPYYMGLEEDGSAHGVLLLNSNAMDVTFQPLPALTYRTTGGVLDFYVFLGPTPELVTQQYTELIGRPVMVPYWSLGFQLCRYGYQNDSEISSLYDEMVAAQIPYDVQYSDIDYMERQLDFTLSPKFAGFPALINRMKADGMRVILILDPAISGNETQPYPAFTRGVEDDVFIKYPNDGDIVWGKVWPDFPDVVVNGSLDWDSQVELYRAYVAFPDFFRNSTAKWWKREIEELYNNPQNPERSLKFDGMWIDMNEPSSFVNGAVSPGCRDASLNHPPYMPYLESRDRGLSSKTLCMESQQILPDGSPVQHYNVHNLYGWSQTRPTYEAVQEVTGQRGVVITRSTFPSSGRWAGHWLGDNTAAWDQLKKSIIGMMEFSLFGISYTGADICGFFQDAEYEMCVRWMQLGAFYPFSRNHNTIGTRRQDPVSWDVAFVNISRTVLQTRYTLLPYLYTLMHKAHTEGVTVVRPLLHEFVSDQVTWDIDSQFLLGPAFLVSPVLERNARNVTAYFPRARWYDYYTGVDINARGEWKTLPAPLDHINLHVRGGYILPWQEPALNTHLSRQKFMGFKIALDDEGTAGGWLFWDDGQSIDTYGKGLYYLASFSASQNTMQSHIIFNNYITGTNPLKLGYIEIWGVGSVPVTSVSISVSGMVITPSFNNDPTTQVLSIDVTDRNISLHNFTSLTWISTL

| SMILES | inhibition [1] | inhibition [2] |
| --- | --- | --- |
| C=C1CC[C@@H]2[C@](C)(CO)[C@H](O)CC[C@@]2(C)[C@@H]1/C=C/C1=CC(=C/c2ccc(Cl)cc2)/OC1=O | inactive | – |
| C=C1CC[C@@H]2[C@](C)(CO)[C@H](O)CC[C@@]2(C)[C@@H]1CCC1C(=O)OC[C@H]1O (stereo not given in full) | 34.2% | inactive |
| C=C1CC[C@@H]2[C@](C)(CO)[C@H](O)CC[C@@]2(C)[C@@H]1/C=C/C1=CC(=C/C=C(/C)CCC=C(C)C)/OC1=O | inactive | – |
| C=C1CC[C@@H]2[C@](C)(CO)[C@H](O)CC[C@@]2(C)/C1=C/C=C1\C=COC1=O | inactive | inactive |
| C=C1CC[C@@H]2[C@](C)(CO)[C@H](O)CC[C@@]2(C)[C@@H]1/C=C/C1=CC(=C/C)/OC1=O | 15.1% | inactive |
| C=C1CC[C@@H]2[C@](C)(CO)[C@H](O)CC[C@@]2(C)[C@@H]1/C=C/C1=CCOC1=O | 16.5% | inactive |
| C=C1CC[C@@H]2[C@](C)(CO)[C@H](O)CC[C@@]2(C)[C@@H]1/C=C/C1=CC(=C/c2ccc(OC)cc2)/OC1=O | 100% | – |
| C=C1CC[C@@H]2[C@](C)(CO)[C@H](O)CC[C@@]2(C)[C@@H]1/C=C/C1=CC(=C(C)C)OC1=O | 17.1% | inactive |
| C=C1CC[C@@H]2[C@](C)(CO)[C@H](O)CC[C@@]2(C)[C@@H]1/C=C/C1=CC(=C/CCC)/OC1=O | 43.5% | inactive |
| C=C1CC[C@@H]2[C@](C)(CO)[C@H](O)CC[C@@]2(C)[C@@H]1/C=C/C1=CC(=C/c2cccc(Br)c2)/OC1=O | 16.7% | – |
| CC(C)=C1C=C(/C=C/[C@@H]2[C@@]3(CC[C@@H]4[C@](C)(CO)[C@H](O)CC[C@]42C)CO3)C(=O)O1 | inactive | – |
| C=C1CC[C@@H]2[C@](C)(CO)[C@H](O)CC[C@@]2(C)[C@@H]1/C=C/C1=CC(=C/c2ccc(F)cc2)/OC1=O | inactive | – |
| C=C1CC[C@@H]2[C@](C)(CO)[C@H](O)CC[C@@]2(C)[C@@H]1C/C=C1/C(=O)OC[C@H]1O | inactive | inactive |
| C[C@]1(CO)[C@H]2CC[C@@]3(CO3)[C@@H](/C=C/C3=CCOC3=O)[C@]2(C)CC[C@H]1O | inactive | – |
| C[C@]1(CO)[C@H]2CC[C@@]3(CO3)[C@@H](/C=C/C3=CC(=C/C=C/c4ccccc4)/OC3=O)[C@]2(C)CC[C@H]1O | 49.2% | – |
| COc1ccc(/C=C2C=C(/C=C/[C@@H]3[C@@]4(CC[C@@H]5[C@](C)(CO)[C@H](O)CC[C@]53C)CO4)C(=O)O/2)cc1 | 37.7% | – |
| C=C1CC[C@@H]2[C@](C)(CO)[C@H](O)CC[C@@]2(C)[C@@H]1/C=C/C1=CC(=C/C=C/c2ccccc2)/OC1=O | 84.3% | – |

The remaining lines, values ahead:

| inhibition [1] | inhibition [2] | SMILES |
| --- | --- | --- |
| 49.6% | – | C=C1CC[C@@H]2[C@]3(C)COC(c4cccc(Br)c4)O[C@@H]3CC[C@@]2(C)[C@@H]1C/C=C1/C(=O)OC[C@H]1O (stereo not given in full) |
| inactive | inactive | C=C1CC[C@@H]2[C@]3(C)COCO[C@@H]3CC[C@@]2(C)[C@@H]1C/C=C1/C(=O)OC[C@H]1O |
| 5.5% | – | C=C1CC[C@@H]2[C@]3(C)COC(c4ccccc4OC)O[C@@H]3CC[C@@]2(C)[C@@H]1C/C=C1/C(=O)OC[C@H]1O (stereo not given in full) |
| inactive | inactive | C=C1CC[C@@H]2[C@]3(C)COC(CCCC)O[C@@H]3CC[C@@]2(C)[C@@H]1C/C=C1/C(=O)OC[C@H]1O (stereo not given in full) |
| 14.5% | – | C=C1CC[C@@H]2[C@]3(C)COC(c4cc(OC)c(OC)cc4OC)O[C@@H]3CC[C@@]2(C)[C@@H]1C/C=C1/C(=O)OC[C@H]1O (stereo not given in full) |
| 26.2% | – | C=C1CC[C@@H]2[C@]3(C)COC(c4ccc(F)cc4)O[C@@H]3CC[C@@]2(C)[C@@H]1C/C=C1/C(=O)OC[C@H]1O (stereo not given in full) |
| inactive | inactive | C=C1CC[C@@H]2[C@]3(C)COC(c4ccc(Cl)cc4)O[C@@H]3CC[C@@]2(C)[C@@H]1C/C=C1/C(=O)OC[C@H]1O (stereo not given in full) |
| inactive | inactive | C=C1CC[C@@H]2[C@]3(C)COC(C)(C)O[C@@H]3CC[C@@]2(C)[C@@H]1C/C=C1/C(=O)OC[C@H]1O |
| 48.9% | – | C=C1CC[C@@H]2[C@]3(C)COC(c4ccccc4)O[C@@H]3CC[C@@]2(C)[C@@H]1C/C=C1/C(=O)OC[C@H]1O (stereo not given in full) |
| 20.1% | inactive | C=C1CC[C@@H]2[C@]3(C)COC(CCCCCC)O[C@@H]3CC[C@@]2(C)[C@@H]1C/C=C1/C(=O)OC[C@H]1O (stereo not given in full) |
| 13.2% | – | C=C1CC[C@@H]2[C@]3(C)COC(c4ccc(OC)cc4)O[C@@H]3CC[C@@]2(C)[C@@H]1C/C=C1/C(=O)OC[C@H]1O (stereo not given in full) |
